Data reported in patent US8563543B2, “Iminothiadiazine dioxide compounds as bace inhibitors, compositions, and their use” (Merck Sharp & Dohme Corp., priority 2009, dated 2013).
Values joined by “and” are separate entries in the source; they are usually repeats but may differ in a detail not shown here. Identical values can stand only once.

Legend:
[1] = target: soluble human BACE1 catalytic domain (Homo sapiens, UniProt P56817); assay: BACE1 HTRF FRET assay; type: biochemical; settings: calculated from IC50 using the Cheng-Prusoff equation
Sequence of soluble human BACE1 catalytic domain (P56817 75-416 limits assumed): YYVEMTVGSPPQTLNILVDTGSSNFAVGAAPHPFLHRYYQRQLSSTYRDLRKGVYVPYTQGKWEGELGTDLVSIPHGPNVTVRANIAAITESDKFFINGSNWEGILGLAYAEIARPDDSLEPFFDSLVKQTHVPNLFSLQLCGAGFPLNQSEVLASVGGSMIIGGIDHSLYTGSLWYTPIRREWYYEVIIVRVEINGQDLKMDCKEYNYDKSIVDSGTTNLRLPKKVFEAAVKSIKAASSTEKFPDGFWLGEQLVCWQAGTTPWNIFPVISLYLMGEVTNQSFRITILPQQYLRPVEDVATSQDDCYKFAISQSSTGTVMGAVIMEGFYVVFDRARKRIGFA
Text: Dimethyl Sulfoxide (DMSO)
Recombinant human soluble BACE1 catalytic domain (>95% pure)
APP Swedish mutant peptide substrate (QSY7-APP^swe-Eu): QSY7-[…]-Europium-amide
A homogeneous time-resolved FRET assay was used to determine IC50 values for inhibitors of the soluble human BACE1 catalytic domain. This assay monitored the increase of 620 nm fluorescence that resulted from BACE1 cleavage of an APPswedish APP^swe mutant peptide FRET substrate (QSY7-[…]-Europium-amide). This substrate contained an N-terminal QSY7 moiety that served as a quencher of the C-terminal Europium fluorophore (620 nm Em). In the absence of enzyme activity, 620 nm fluorescence was low in the assay and increased linearly over 3 hours in the presence of uninhibited BACE1 enzyme. Inhibition of BACE1 cleavage of the QSY7-APP^swe-Eu substrate by inhibitors was manifested as a suppression of 620 nm fluorescence.
Varying concentrations of inhibitors at 3× the final desired concentration in a volume of 10 ul were preincubated with purified human BACE1 catalytic domain (3 nM in 10 μl) for 30 minutes at 30° C. in reaction buffer containing 20 mM Na-Acetate pH 5.0, 10% glycerol, 0.1% Brij-35 and 7.5% DSMO. […] The 620 nm fluorescence was then read on a Rubystar HTRF plate reader (BMG Labtechnologies) using a 50 μs delay followed by a 400 millisecond acquisition time window. […]

[2] = target: T1, purified human autoBACE-2 (Homo sapiens, UniProt Q9Y5Z0); assay: BACE-2 time-resolved endpoint proteolysis assay (BACE-HTRF assay); type: biochemical; settings: calculated from IC50 using the Cheng-Prusoff equation
T1 sequence (Q9Y5Z0 63-473 limits assumed): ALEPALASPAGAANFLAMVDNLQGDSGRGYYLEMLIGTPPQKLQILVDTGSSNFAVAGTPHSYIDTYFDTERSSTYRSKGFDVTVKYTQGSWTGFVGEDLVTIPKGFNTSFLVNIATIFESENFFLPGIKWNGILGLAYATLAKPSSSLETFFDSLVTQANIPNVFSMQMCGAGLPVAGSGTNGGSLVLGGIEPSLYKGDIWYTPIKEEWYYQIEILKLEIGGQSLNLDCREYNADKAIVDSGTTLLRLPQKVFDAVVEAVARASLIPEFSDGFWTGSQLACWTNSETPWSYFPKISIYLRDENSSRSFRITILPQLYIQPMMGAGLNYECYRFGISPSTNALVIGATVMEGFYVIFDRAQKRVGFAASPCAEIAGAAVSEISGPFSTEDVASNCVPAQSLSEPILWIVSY
Procedure: Inhibitor IC50 values at purified human autoBACE-2 were determined in a time-resolved endpoint proteolysis assay that measures hydrolysis of the QSY7-[…]-Eu-amide FRET peptide substrate (BACE-HTRF assay). RACE-mediated hydrolysis of this peptide results in an increase in relative fluorescence (RFU) at 620 nm after excitation with 320 nm light. Inhibitor compounds, prepared at 3× the desired final concentration in 1×BACE assay buffer (20 mM sodium acetate pH 5.0, 10% glycerol, 0.1% Brij-35) supplemented with 7.5% DMSO were pre-incubated with an equal volume of autoBACE-2 enzyme diluted in 1×RACE assay buffer (final enzyme concentration 1 nM) in black 384-well NUNC plates for 30 minutes at 30° C. […] DMSO was present at 5% final concentration in the assay. Following laser excitation of sample wells at 320 nm, the fluorescence signal at 620 nm was collected for 400 ms following a 50 μs delay on a RUBYstar HTRF plate reader (BMG Labtechnologies). Raw RFU data was normalized to maximum (1.0 nM RACE/DMSO) and minimum (no enzyme/DMSO)RFU values. IC50 values were determined by nonlinear regression analysis (sigmoidal dose response, variable slope) of percent inhibition data with minimum and maximum values set to 0 and 100 percent respectively. Similar IC50 values were obtained when using raw RFU data. The Ki values were calculated from the IC50 using the Cheng-Prusoff equation.

[3] = Solution stability (hydrolysis) by LC/MS in pH 7.4 phosphate buffer; type: physicochemical; settings: for hydrolysis: 25° C. over 6 days; for hydrolysis / hydrolysis product share of the sample: pH 7.4
Procedure: The following procedures were used to measure solution stability, and to compare the solution stability of the compounds of the invention to that of otherwise structurally identical iminopyrimidinones.
Stock solutions of the tested compounds were prepared by dissolving about 3 mg of each compound in 3 mL of acetonitrile. Standards for test compounds were prepared by diluting 1 mL of the stock solution with an additional 4 mL of acetonitrile. These standards were stored at 4° C. Samples were prepared by diluting 1 mL of the stock solution with 4 mL of 50 mM pH 7.4 phosphate buffer. These samples were stored at the appropriate temperature in the absence of light. Standards and samples were analyzed by LC/MS initially and at day 1, day 4, and day 6. • HPLC Conditions: • Mobile phase A: 10 mM pH 5 ammonium acetate buffer:methanol (90:10) • Mobile phase B: 10 mM pH 5 ammonium acetate buffer:methanol (10:90) • Column: Zorbax SB-Phenyl 4.6×50 mm, 1.8 μm • Column temperature: 40° C. • Flow: 0.8 mL/min. • Gradient:
• Detectors: UV at 220 nm and 236 nm • MS, ES ionization, positive mode, for identification only at final time point. • The terms reported in the tables below have the following meanings: • Area % is the integration of peak from HPLC as reported by Waters Empower II software. • RRT is the relative retention time of new product compared to the standard of the test compound. • Formula for RRT is:
[formula] • M+1 is the mass observed including protonation (+1 mass unit). • ND stands for no peak detected by the UV detector. • * stands for no ion detected by the mass spectrometer.

[4] = Sample at pH 7.4, 25° C., Day 1
[5] = Sample at pH 7.4, 25° C., Day 4
[6] = Sample at pH 7.4, 25° C., Day 6
[7] = Sample at pH 7.4, 25° C., Initial
[8] = Sample initial, 40° C. and 60° C. studies
[9] = Standard in acetonitrile, stored at 4° C., Day 1
[10] = Standard in acetonitrile, stored at 4° C., Day 4
[11] = Standard in acetonitrile, stored at 4° C., Day 6
[12] = Standard in acetonitrile, stored at 4° C., Initial

hydrolysis [3] | hydrolysis product share of the sample ([3]; 40° C. over 4 days) | hydrolysis product share of the sample ([3]; 60° C.) | Area %, Day 1 (parent peak) [3, 4] [%] | Area %, Day 4 (parent peak) [3, 5] [%] | Area %, Day 6 (parent peak) [3, 6] [%] | Area %, Initial (parent peak) [3, 7] [%] | Area %, Initial (parent peak) [3, 8] [%] | Area %, Day 1 (parent peak) [3, 9] | Area %, Day 4 (parent peak) [3, 10] [%] | Area %, Day 6 (parent peak) [3, 11] [%] | Area %, Initial (parent peak) [3, 12] | Area %, Day 1 (parent peak) ([3]; pH 7.4 at 40° C., Day 1) [%] | Area %, Day 4 (parent peak) ([3]; pH 7.4 at 40° C., Day 4) [%] | SMILES | further results
no hydrolysis | no hydrolysis | no hydrolysis | 100.0 | 100.0 | 100.0 | 100.0 | 100.0 | 100.0% | 100.0 | 100.0 | 100.0% | 100.0 | 100.0 | CN1C(=N)N[C@](C)(c2ccc(F)cc2F)[C@@H](c2ccc(C(F)(F)F)cc2)S1(=O)=O [Example 3] | Ki [1]: ~9 nM; Ki [2]: ~11 nM; Area %, Day 4 (parent peak) ([3]; pH 7.4 at 60° C., Day 4): 87.3%; Area %, Day 4 (unidentified peak, RRT 0.52) ([3]; pH 7.4 at 60° C., Day 4, no ion detected by the mass spectrometer): 12.7%
3.36% | 31.4% | 28.5% | 100.0 | 100.0 | 89.79 | 100.0 | 98.2 | 100.0% and 99.4% | 100.0 | 100.0 | 100.0% and 98.8% | 86.3 | 55.8 | CN1C(=N)N[C@](C)(c2ccc(F)cc2F)[C@@H](c2ccc(C(F)(F)F)cc2)C1=O [Compound Y] | Area %, Day 6 (hydrolysis product peak) [3, 6]: 3.36%; Area %, Initial (hydrolysis product peak) [3, 8]: 0.7%; Area %, Day 1 (hydrolysis product peak) ([3]; pH 7.4 at 40° C., Day 1): 10.5%; Area %, Day 4 (hydrolysis product peak) ([3]; pH 7.4 at 40° C., Day 4): 31.4%; Area %, Day 4 (unidentified peak, RRT 0.87) ([3]; pH 7.4 at 40° C., Day 4, no ion detected by the mass spectrometer): 5.8%; Area %, Day 1 (hydrolysis product peak) ([3]; pH 7.4 at 60° C., Day 1): 28.5%; Area %, Day 1 (parent peak) ([3]; pH 7.4 at 60° C., Day 1): 56.7%; Area %, Day 1 (unidentified peak, RRT 0.87) ([3]; pH 7.4 at 60° C., Day 1, no ion detected by the mass spectrometer): 6.6%
